According to patent US8183228B2, “Anticoagulant antithrombotic dual inhibitors comprising a biotin label” (MSD OSS B.V. Netherlands, priority 2005, dated 2012):
Counter-ions that a name gives are not always drawn.

Tests used:
[1] = system: collagen induced platelet aggregation; assay: In vivo neutralization: collagen induced platelet aggregation (thrombocytopenia) model; conditions: guinea pig; for neutralization of the platelet inhibitory activity by avidin: avidin 10 mg/kg just prior to collagen infusion
Method: 4. In Vivo Neutralization of the Antithrombotic Activity
An intravascular infusion of a collagen suspension induces platelet aggregation and causes transient thrombocytopenia in rats. This test is used to evaluate the influence of a test compound on the severity of thrombocytopenia induced by collagen in rats.
In the first experiment male guinea pigs were s.c. treated with compound 10 at a dose of 75 nmol/kg or vehicle at 4 hours before collagen infusion. In a second experiment compounds 12 and 17 were s.c. administered at a dose of 100 nmol/kg at the same time-point. Male guinea pigs were anaesthetized by i.m. administration of Ketamine+Sedamun (90+10 mg/kg, respectively). After 15 minutes one of the common carotid arteries was dissected free and cannulated with a PE 50 cannula (Clay Adams). Two blood samples of 0.5 mL were collected in plastic vials containing 25 μL 0.20 M Na2EDTA solution. The cannula was then connected to a syringe containing 0.25 mg/mL collagen suspension (Hormon Chemie, Munich, West Germany, diluted with isotonic buffer of pH 2.8). This suspension was administered via an infusion of 225 μL during 30 seconds. Then the syringe was disconnected and 2 blood samples of 0.5 mL were taken at 85 and 95 seconds after the start of the collagen infusion. Then the animals were killed with euthasate after which the number of platelets per sample were counted with a Sysmex blood cell counter model KX-21. In case avidin was used, 10 mg/kg of avidin was i.v. administered at t=4 h after s.c. administration of compound 10, 12 or 17 after which collagen was infused within 5 minutes.
After counting the number of platelets in the collected blood samples the decreased number of platelets is calculated by dividing the mean platelet number of the blood samples obtained at t=85 and 95 seconds by the mean value of the blood samples obtained at t=0. The test was carried out with n=4.

[2] = Pharmacokinetics - neutralization experiment with avidin i.v. in rat; assay type: in vivo; conditions: for level at time molar at 24 h: plasma, sc, before avidin, read-out: Plasma level T = 24 h; for level at time molar at 24 h / Plasma level T = 26 h / % reduction of plasma concentration: s.c. 500 nmol/kg; for Plasma level T = 26 h: 2 hours after avidin 10 mg/kg i.v. at t = 24 h; for % reduction of plasma concentration: within 2 hours after avidin 10 mg/kg i.v. at t = 24 h, sodium salt
Method: 3.2 Pharmacokinetics—Neutralization Experiment:
Rats were treated with compound 10, 12, or 27 at a dose of 100 nmol/kg s.c. At t=1 h, a blood sample was taken and 10 mg/kg of Avidin (from egg white, Sigma) was administered i.v. to the rats treated with compound 10 or 12. Blood was sampled at 0.5-1-3-6 and 23 hours subsequently. The blood was treated as described in the pharmacokinetic experiment and the concentration of the samples was determined by measuring the (residual) anti-Xa activity. (FIG. 8)
In a separate experiment compound 10, 17 or 26 was administered at a dose of 500 nmol/kg s.c. after which blood was collected at 24 hours. Then 10 mg/kg avidin was administered intravenously and blood was collected at 25 and 26 hours. (FIG. 9)

[3] = system: guinea pig platelet aggregation; assay: In vitro neutralisation of inhibition of guinea pig platelet aggregation by avidin; assay type: cell-based; conditions: avidin added to ADP-induced guinea pig platelet aggregation assay
Method: 2.1 In Vitro Neutralization of the Antithrombotic Activity A. In Vitro Neutralisation of Inhibition of Platelet Aggregation (Pre-Incubation of Compound with Avidin)
As performed in above described protocol for ADP-induced platelet aggregation. […] Before inducing the guinea pig platelet aggregation by adding ADP, compound and avidin (from egg white, Sigma) in different concentrations were pre-incubated for 2 minutes at room temperature (FIGS. 1 and 2).
B. In Vitro Neutralisation of Inhibition of Platelet Aggregation
(After Delayed Addition of Avidin)
(§1) As performed in above described protocol for ADP-induced platelet aggregation. […] After 7 minutes the detection of platelet aggregation was interrupted and avidin (from egg white, Sigma) in different concentrations was added at t=9 min. Within 1 minute the detection of the platelet aggregation was resumed (FIGS. 3 and 4).

[4] = Bleeding in guinea pigs and its stop by avidin; assay type: in vivo, guinea pig; conditions: guinea pigs
[5] = system: human platelet aggregation; assay: In vitro neutralisation of inhibition of human platelet aggregation by avidin; assay type: cell-based; conditions: avidin added 9 minutes after ADP-induced aggregation, human platelets
Method: as §1
In FIG. 5, the effect of avidin on the inhibition of human platelet aggregation by compound 17 is shown (addition of avidin 9 minutes after ADP-induced platelet aggregation).

[6] = 75 nmol/kg s.c., + avidin 10 mg/kg i.v. at t = 4 h
[7] = 75 nmol/kg s.c., without avidin
[8] = s.c. 100 nmol/kg, avidin 10 mg/kg i.v.
[9] = 100 nmol/kg s.c., + avidin 10 mg/kg i.v. at t = 4 h
[10] = 100 nmol/kg s.c., without avidin

In the case of `CO[C@H]1O[C@H](COS(=O)(=O)O)[C@@H](O[C@@H]2O[C@@H](C(=O)O)[C@@H](O[C@H]3O[C@H](COS(=O)(=O)O)[C@@H](O[C@@H]4O[C@H](C(=O)O)[C@@H](O[C@H]5O[C@H](COS(=O)(=O)O)[C@@H](OCCOCCOCCOCCNC(=O)[C@H](CCCCNC(=O)CCCC[C@@H]6SC[C@@H]7NC(=O)N[C@@H]76)NC(=O)COCCOCCOCCOCCNC(=O)c6cccc(S(=O)(=O)N[C@@H](Cc7ccc(OCCCCC8CCNCC8)cc7)C(=O)O)c6)[C@H](OC)[C@H]5OC)[C@H](OC)[C@H]4OC)[C@H](OS(=O)(=O)O)[C@H]3OS(=O)(=O)O)[C@H](OC)[C@H]2OC)[C@H](OS(=O)(=O)O)[C@H]1OS(=O)(=O)O` [Compound 10, sodium salt], the “No. of platelets t = 0” value ([1]; 75 nmol/kg s.c., 4 h before collagen, without avidin) is reported as 386 ± 31, the “% inhibition” value ([1]; 75 nmol/kg s.c., 4 hours after administration, without avidin, sodium salt) is reported as 76 ± 4% and the “% inhibition” value [1, 6] is reported as 2 ± 13%. For the same molecule, the “% remaining platelets” value [1, 6] was 40.4 ± 7.8%, the “No. of platelets t = 0” value [1, 6] was 384 ± 20 and the “No. of platelets t = 90 sec” value [1, 6] was 152 ± 26. The “% remaining platelets” value [1, 7] was 85.3 ± 2.5%, the “No. of platelets t = 90 sec” value [1, 7] was 328 ± 18 and the “neutralization of the platelet inhibitory activity by avidin” value [1] was “immediate and quantitative neutralization”. The level at time molar at 24 h [2] was 733 ± 33 nM, the “Cl in comparison to compound 12” value [2, 8] was “strongly increased” and the “neutralization by avidin of (residual) anti-Xa activity / pharmacokinetic behavior” value [2, 8] was “can be neutralized”. For the same molecule, the “overall AUCinf in comparison to compound 12” value [2, 8] was “strongly reduced”, the “overall T1/2 eli in comparison to compound 12” value [2, 8] was “strongly reduced” and the “Plasma level T = 26 h” value [2] was 185 ± 45 nM. The “% reduction of plasma concentration” value [2] was 75% and the “effect of avidin on inhibition of guinea pig platelet aggregation (neutralisation of anti-GPIIbIIIa activity)” value [3] was “immediate restoration of platelet aggregation”.
With `CO[C@H]1O[C@H](COS(=O)(=O)O)[C@@H](O[C@@H]2O[C@@H](C(=O)O)[C@@H](O[C@H]3O[C@H](COS(=O)(=O)O)[C@@H](O[C@@H]4O[C@H](C(=O)O)[C@@H](O[C@H]5O[C@H](COS(=O)(=O)O)[C@@H](OCCOCCOCCOCCNC(=O)COCCOCCOCCOCCNC(=O)c6cccc(S(=O)(=O)N[C@@H](Cc7ccc(OCCCCC8CCNCC8)cc7)C(=O)O)c6)[C@H](OC)[C@H]5OC)[C@H](OC)[C@H]4OC)[C@H](OS(=O)(=O)O)[C@H]3OS(=O)(=O)O)[C@H](OC)[C@H]2OC)[C@H](OS(=O)(=O)O)[C@H]1OS(=O)(=O)O` [Compound 12, sodium salt, reference compound] the “% inhibition” value ([1]; 100 nmol/kg s.c., 4 hours after administration, without avidin, sodium salt) was 70 ± 4%, the “% inhibition” value [1, 9] was 74 ± 3% and the “% remaining platelets” value [1, 9] was 86.5 ± 1.7%. For the same molecule, the “No. of platelets t = 0” value [1, 9] was 379 ± 6, the “No. of platelets t = 90 sec” value [1, 9] was 329 ± 11 and the “% remaining platelets” value [1, 10] was 84.5 ± 2.2%. For the same molecule, the “No. of platelets t = 0” value [1, 10] was 426 ± 6, the “No. of platelets t = 90 sec” value [1, 10] was 360 ± 7 and the “neutralization of the platelet inhibitory activity by avidin” value [1] was “not”. For the same molecule, the “neutralization by avidin of (residual) anti-Xa activity / pharmacokinetic behavior” value [2, 8] was “not affected” and the “effect of avidin on inhibition of guinea pig platelet aggregation (neutralisation of anti-GPIIbIIIa activity)” value [3] was “cannot be restored”.
With `CO[C@H]1O[C@H](COS(=O)(=O)O)[C@@H](O[C@@H]2O[C@@H](C(=O)O)[C@@H](O[C@H]3O[C@H](COS(=O)(=O)O)[C@@H](O[C@@H]4O[C@H](C(=O)O)[C@@H](O[C@H]5O[C@H](COS(=O)(=O)O)[C@@H](OCCOCCOCCOCCNC(=O)[C@H](CCCCNC(=O)C[C@H](NC(=O)CCCC[C@@H]6SC[C@@H]7NC(=O)N[C@@H]76)C(=O)O)NC(=O)COCCOCCOCCOCCNC(=O)c6cccc(S(=O)(=O)N[C@@H](Cc7ccc(OCCCCC8CCNCC8)cc7)C(=O)O)c6)[C@H](OC)[C@H]5OC)[C@H](OC)[C@H]4OC)[C@H](OS(=O)(=O)O)[C@H]3OS(=O)(=O)O)[C@H](OC)[C@H]2OC)[C@H](OS(=O)(=O)O)[C@H]1OS(=O)(=O)O` [Compound 17, sodium salt] the “bleeding induced after administration” value [4] was “dose-dependent bleeding”, the “effect of avidin on induced bleeding” value ([4]; avidin i.v. 10 mg/kg) was “stopped immediately” and the “% inhibition” value [1, 9] was −5 ± 15%. For the same molecule, the “% remaining platelets” value [1, 9] was 46.5 ± 7.8%, the “No. of platelets t = 0” value [1, 9] was 367 ± 16 and the “No. of platelets t = 90 sec” value [1, 9] was 181 ± 12. For the same molecule, the “% remaining platelets” value [1, 10] was 82.5 ± 2.0%, the “No. of platelets t = 0” value [1, 10] was 424 ± 11 and the “No. of platelets t = 90 sec” value [1, 10] was 348 ± 7. The “neutralization of the platelet inhibitory activity by avidin” value [1] was “immediate and quantitative neutralization”, the “effect of avidin on inhibition of human platelet aggregation” value [5] was “full restoration of human platelet aggregation” and the level at time molar at 24 h [2] was 666 ± 93 nM. The “Plasma level T = 26 h” value [2] was 112 ± 35 nM and the “% reduction of plasma concentration” value [2] was 83%.
